Results: patent US10159678B2, “Methods to decrease susceptibility to asthmatic bronchoconstriction” (Cornell University, priority 2012, dated 2018)

Columns and labels:
[1] = tested on: cystic fibrosis tracheal cells; experiment: Sphinganine in cell lysates by LC-MS/MS after GlyH-101; type: cell-based, human; details: GlyH-101 (50 μM) in culture medium, cells from the trachea of cystic fibrosis patients; FIG. 6A
Method: (§1) GlyH-101 (50 μM) was added to culture media of cystic fibrosis tracheal cells, non-cystic fibrosis tracheal cells or A549 cells (a lung epithelial cell line).
(§2) Sphinganine, an intermediate of de-novo sphingolipid synthesis, was quantified in cell lysates by LC-MS/MS.

[2] = tested on: non-cystic fibrosis tracheal cells; experiment: as above; type: cell-based; details: GlyH-101 (50 μM) in culture media, non-CF airway epithelial cells; FIG. 6A
Method: as §1, §2

[3] = tested on: A549 cells; experiment: as above; type: cell-based; details: GlyH-101 (50 μM), A549 lung epithelial cell line; FIG. 6B
Method: as §1, §2

[4] = biological target: T1, CFTR (Mus musculus, UniProt P26361); experiment: Airway resistance to methacholine after intranasal GlyH-101 in Sptlc2+/+ and Sptlc2+/- mice; type: in vivo; details: GlyH-101 (5 μg) intranasally, after 3 h
T1 construct: administered directly to the respiratory tract; from tissue; host or cells: live Sptlc2+/+ and Sptlc2+/- mice (airways)
T1 sequence (P26361 whole entry): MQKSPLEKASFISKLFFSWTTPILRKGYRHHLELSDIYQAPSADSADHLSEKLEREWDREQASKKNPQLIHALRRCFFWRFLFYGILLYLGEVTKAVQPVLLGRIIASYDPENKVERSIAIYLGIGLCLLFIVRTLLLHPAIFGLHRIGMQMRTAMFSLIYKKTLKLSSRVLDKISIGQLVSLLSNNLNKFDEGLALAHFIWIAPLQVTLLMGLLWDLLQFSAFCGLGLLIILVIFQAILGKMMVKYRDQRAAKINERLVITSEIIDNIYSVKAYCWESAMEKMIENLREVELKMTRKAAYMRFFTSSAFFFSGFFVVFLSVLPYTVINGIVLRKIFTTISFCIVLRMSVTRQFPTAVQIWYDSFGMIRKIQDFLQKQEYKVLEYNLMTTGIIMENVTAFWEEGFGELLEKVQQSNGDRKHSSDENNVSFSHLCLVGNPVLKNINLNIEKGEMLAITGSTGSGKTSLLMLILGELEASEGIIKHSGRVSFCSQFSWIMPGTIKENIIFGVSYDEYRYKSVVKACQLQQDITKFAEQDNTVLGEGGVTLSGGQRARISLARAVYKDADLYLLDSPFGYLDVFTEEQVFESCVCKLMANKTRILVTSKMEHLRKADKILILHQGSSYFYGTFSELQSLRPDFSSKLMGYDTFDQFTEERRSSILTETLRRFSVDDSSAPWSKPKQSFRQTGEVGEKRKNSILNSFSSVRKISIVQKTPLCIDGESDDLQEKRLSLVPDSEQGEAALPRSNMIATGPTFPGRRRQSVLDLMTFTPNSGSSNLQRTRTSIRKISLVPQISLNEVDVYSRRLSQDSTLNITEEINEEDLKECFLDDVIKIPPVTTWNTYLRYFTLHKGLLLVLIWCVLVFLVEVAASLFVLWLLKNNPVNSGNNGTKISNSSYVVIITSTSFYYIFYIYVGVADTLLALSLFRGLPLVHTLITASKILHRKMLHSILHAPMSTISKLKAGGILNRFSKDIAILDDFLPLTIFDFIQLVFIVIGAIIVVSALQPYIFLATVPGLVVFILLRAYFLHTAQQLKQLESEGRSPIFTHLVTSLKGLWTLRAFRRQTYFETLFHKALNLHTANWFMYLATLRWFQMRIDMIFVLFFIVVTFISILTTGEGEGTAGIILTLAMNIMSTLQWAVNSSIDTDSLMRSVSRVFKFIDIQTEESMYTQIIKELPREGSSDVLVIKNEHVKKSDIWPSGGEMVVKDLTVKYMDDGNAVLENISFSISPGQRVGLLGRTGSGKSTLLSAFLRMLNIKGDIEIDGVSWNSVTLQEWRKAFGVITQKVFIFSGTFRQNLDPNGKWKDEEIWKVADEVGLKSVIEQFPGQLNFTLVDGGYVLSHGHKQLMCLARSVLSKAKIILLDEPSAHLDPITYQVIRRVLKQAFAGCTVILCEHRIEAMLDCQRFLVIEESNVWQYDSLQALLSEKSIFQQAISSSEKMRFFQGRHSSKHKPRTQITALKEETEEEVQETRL
Method: Mice were anaesthetized with pentobarbital (100 mg/kg; American Pharmaceutical Partners, Los Angeles, Calif.), tracheostomized and mechanically ventilated at a rate of 150 breaths/min, a tidal volume of 10 ml/kg and positive end-expiratory pressure of 2-3 cm H2O using a computer-controlled animal ventilator (Sireq, Montreal, Canada). Three perturbations were used to assess baseline respiratory mechanics and the effects were analyzed using the Flexivent software (Scireq): • (1) Static compliance was determined using the Salazar-Knowles equation (Colebatch et al., J Appl Physiol 46:387-393 (1971) to the plateau pressure measurements obtained between total lung capacity and functional residual capacity; • (2) Single-frequency forced oscillations were applied to determine tissue resistance (R), elastance (E) and dynamic compliance (C) using a single compartment model; • (3) Broadband forced oscillations were applied to determine Newtonian (airway) resistance (Rn), tissue damping (G) and tissue elastance using a constant phase model. Rn and G were also assessed following increasing doses of methacholine (3.125, 12.5 and 50 mg/ml). […]

[5] = biological target: T1, CFTR; experiment: Myograph contractile response of bronchial rings from Sptlc2+/- or Sptlc2+/+ mice with GlyH-101 in bath; details: 2 hr in bath, methacholine (10 mM), FIG. 6C
Method: In another experiment, bronchial rings were isolated from Sptlc2^+/− or Sptlc2^+/+ mice and mounted in a myograph. CFTR inhibitor GlyH-101 or the solvent DMSO (control) were added to the bath solution. After 2 hr contractile responses of the rings stimulated with methacholine (10 mM) were determined.

[6] = tested on: cancer cells; details: cancer cells (Wang et al. 2001); cited from earlier work
[7] = tested on: non-malignant cells; details: non-malignant cells (Li et al. 2009; O'Donnell et al. 2002); cited from earlier work
[8] = tested on: Human bronchial epithelial cells; experiment: Viability of human bronchial epithelial cells; type: cell-based; details: myriocin (1 μM) or fenretinide (10 μM) for 3 hours
Method: (§3) Human bronchial epithelial cells were incubated with either myriocin (1 μM) or fenretinide (10 μM) for 3 hours. The amounts of sphingolipids were then quantified by mass spectrometry.
The viability of the cells was not affected by fenretinide or myriocin. Fenretinide can induce cell death at doses as low as 5 μM in cancer cells (Wang et al. Cancer Res 61:5102-5 (2001)), but toxicity is usually not seen in doses up to 12 μM in non-malignant cells (Li et al., Cancer Letters 284:175-81 (2009); O'Donnell et al., Leukemia 16:902-10 (2002)). Accordingly, low doses of fenretinide may effectively alleviate bronchial hyper reactivity.

[9] = tested on: Human bronchial epithelial cells; experiment: Sphingolipids by mass spectrometry in human bronchial epithelial cells; type: cell-based; details: fenretinide (10 μM) for 3 hours; FIG. 7
Method: FIG. 7 illustrates that fenretinide increases metabolites of de-novo sphingolipid synthesis. Human bronchial epithelial cells were incubated with myriocin (1 μM) or fenretinide (10 μM) for 3 h in serum free medium supplemented with fatty acid-free bovine serum albumin (0.1%). Cell lysates were analyzed by mass spectrometry. The sums (mean+SEM) of all dihydroceramides are shown as a reflection of the activity of the de-novo sphingolipid synthesis pathway.
as §3

| airway resistance after methacholine ([4]; Sptlc2+/- mice, FIG. 6E) | bronchial reactivity after methacholine ([4]; control Sptlc2+/+ mice, FIG. 6D) | contractile response of bronchial rings upon methacholine ([5]; rings from Spt-deficient mice) | contractile response of bronchial rings ([5]; rings from wild type mice (Sptlc+/+)) | Compound | sphinganine level [1] | sphinganine level [2] | sphinganine level [3] | doses that can induce cell death [6] | doses at which toxicity is usually not seen [7] | viability of the cells [8] | sum of all dihydroceramides [9] |
| --- | --- | --- | --- | --- | --- | --- | --- | --- | --- | --- | --- |
| alleviated | no effect | decreased | increased contractile response | O=C(CNc1ccc2ccccc2c1)N/N=C/c1cc(Br)c(O)c(Br)c1O [GlyH-101, (Naphthalen-2-ylamino)-acetic acid (3,5-dibromo-2,4,-dihydroxybenzylidene)-hydrazide] | not altered | increases | increases | – | – | – | – |
| – | – | – | – | CC1=C(/C=C/C(C)=C/C=C/C(C)=C/C(=O)Nc2ccc(O)cc2)C(C)(C)CCC1 [fenretinide, N-(4-hydroxyphenyl)retinamide] | – | – | – | ≥ 5 µM | up to 12 μM | not affected | increased |
